In patent US20140303229A1, “NOVEL SKIN MOISTURIZING COMPOSITIONS” (priority 2007, published 2014):

Tested on: skin
Experiment: 14-day cumulative irritation potential study (predictive occlusive patch test)
From the text: Occlusive patches with 100 micro liters of test product were applied to the skin daily for 14 days. Patches with sodium lauryl sulfate, 1.0% was used as a positive control while white petrolatum was used as a negative control.

| Molecule | Classification (irritation classification according to Berger and Bowman) (based on standardized cumulative irritation scores, 14 days, listed as Sodium lauryl sulfate 1.0%, sulfate) | Classification (irritation classification according to Berger and Bowman) (based on standardized cumulative irritation scores, 14 days, sulfate) | Standardized Cumulative Score (cumulative irritation score) (occlusive patches, 100 micro liters, daily for 14 days) | Category (irritation classification of Berger and Bowman) (in vivo) | Classification (irritation classification according to Berger and Bowman) (in vivo) |
| --- | --- | --- | --- | --- | --- |
| CCCCCCCCCCCCOS(=O)(=O)[O-].[Na+] [Sodium lauryl sulfate, 1.0%, Sodium lauryl sulfate] | possibly mild | Possibly mild in | 595.4 | – | – |
| White Petrolatum | – | – | – | I | Mild material - |
